The values that follow come from ChEMBL document CHEMBL6083283, “Discovery of Dual CDK6/BRD4 Inhibitor Inducing Apoptosis and Increasing the Sensitivity of Ferroptosis in Triple-Negative Breast Cancer” (J Med Chem, 2024).

Molecules are shown by their SMILES.

The subject of data set [1] is BT-549. In words: cells. The conditions noted are these: Homo sapiens, BT-549, 72 h.
Description: Antiproliferative activity against human BT-549 cells assessed as cell viability incubated for 72 hrs by MTT assay
Data set [2] is described as follows: in vitro. Conditions: human, liver microsomes. (Liver microsomes are vesicles of endoplasmic reticulum, rich in cytochrome P450 enzymes.)
Description: Metabolic stability in human liver microsome assessed as intrinsic clearance
A short description of data set [3]: in vitro. The conditions noted are these: human, liver microsomes. The source holds these as a separate data set.
For data set [4], the system named is MDA-MB-231. In words: Antiproliferative activity against human MDA-MB-231 cells assessed as cell viability incubated for 72 hrs in presence of Palbociclib by MTT assay. Conditions: MDA-MB-231, 72 h. The format is functional, cell-based. In general terms: Tetrazolium dyes change colour on reduction, which living cells bring about.
Data set [5] can be described thus: in vitro. Conditions: human, MCF-10A cells.
Description: Antiproliferative activity against human MCF-10A cells assessed as cell viability incubated for 72 hrs by MTT assay
Data set [6] deals with MDA-MB-231. As to the kind of experiment: Antitumor activity against human MDA-MB-231 cells xenografted in BALB/c nude mouse assessed as tumor growth inhibition at 50 mg/kg, ip administered for 21 days. Conditions: MDA-MB-231, 504 h, read-out: TGI.
In data set [7] the test system is BT-549. As to the kind of experiment: Antiproliferative activity against human BT-549 cells assessed as cell viability incubated for 72 hrs in presence of Palbociclib by MTT assay. The format is functional, cell-based. Conditions: BT-549, 72 h.
A short description of data set [8]: Antiproliferative activity against human MCF-10A cells assessed as cell viability incubated for 72 hrs in presence of Palbociclib by MTT assay. It counts as toxicity, cell-based.
In data set [9] the test system is MDA-MB-231. As to the kind of experiment: cells. Conditions: Homo sapiens, MDA-MB-231, 72 h.
Description: Antiproliferative activity against human MDA-MB-231 cells assessed as cell viability incubated for 72 hrs by MTT assay
Another data set concerns the target CDK6/cyclin D3 (Homo sapiens, UniProt Q00534). In words: Inhibition of full length recombinant human CDK6/CyclinD3 co-expressed by baculovirus in Sf9 insect cells using histone H1 as substrate by ADP-glo kinase assay.
Data set [10] addresses T1, Bromodomain-containing protein 2 (Homo sapiens, UniProt P25440).
Description: Inhibition of BRD2 BD2 (unknown origin)
For data set [11], the target named is T1, Bromodomain-containing protein 2. This is another data set of the same source.
Description: Inhibition of BRD2 BD1 (unknown origin)
The target of data set [12] is CDK9/cyclin T1 (Homo sapiens) (UniProt O60563+P50750). The conditions noted are these: dose 500.0 nM.
Description: Inhibition of CDK9/cyclinT1 (unknown origin) at 500 nM relative to control

Chain of CDK6/cyclin D3 (P30281 whole entry): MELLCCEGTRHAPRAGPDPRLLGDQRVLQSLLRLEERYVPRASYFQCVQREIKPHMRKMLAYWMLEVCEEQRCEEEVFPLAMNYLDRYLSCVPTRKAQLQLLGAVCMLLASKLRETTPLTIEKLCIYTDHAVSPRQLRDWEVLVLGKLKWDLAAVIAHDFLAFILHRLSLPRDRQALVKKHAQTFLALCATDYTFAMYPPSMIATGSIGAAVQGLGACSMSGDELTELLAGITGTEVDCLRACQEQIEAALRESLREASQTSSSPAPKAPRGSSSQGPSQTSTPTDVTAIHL
Chain of CDK6/cyclin D3 (Q00534 whole entry): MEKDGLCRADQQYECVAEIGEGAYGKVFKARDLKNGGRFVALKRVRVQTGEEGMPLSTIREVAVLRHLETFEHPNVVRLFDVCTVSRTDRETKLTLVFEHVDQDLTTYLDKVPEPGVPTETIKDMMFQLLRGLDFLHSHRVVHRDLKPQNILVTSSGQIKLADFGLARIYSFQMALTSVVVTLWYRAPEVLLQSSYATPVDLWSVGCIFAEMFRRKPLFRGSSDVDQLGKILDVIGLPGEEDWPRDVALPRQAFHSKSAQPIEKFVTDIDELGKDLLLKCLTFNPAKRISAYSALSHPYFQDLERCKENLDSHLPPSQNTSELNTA
T1 sequence (P25440 whole entry): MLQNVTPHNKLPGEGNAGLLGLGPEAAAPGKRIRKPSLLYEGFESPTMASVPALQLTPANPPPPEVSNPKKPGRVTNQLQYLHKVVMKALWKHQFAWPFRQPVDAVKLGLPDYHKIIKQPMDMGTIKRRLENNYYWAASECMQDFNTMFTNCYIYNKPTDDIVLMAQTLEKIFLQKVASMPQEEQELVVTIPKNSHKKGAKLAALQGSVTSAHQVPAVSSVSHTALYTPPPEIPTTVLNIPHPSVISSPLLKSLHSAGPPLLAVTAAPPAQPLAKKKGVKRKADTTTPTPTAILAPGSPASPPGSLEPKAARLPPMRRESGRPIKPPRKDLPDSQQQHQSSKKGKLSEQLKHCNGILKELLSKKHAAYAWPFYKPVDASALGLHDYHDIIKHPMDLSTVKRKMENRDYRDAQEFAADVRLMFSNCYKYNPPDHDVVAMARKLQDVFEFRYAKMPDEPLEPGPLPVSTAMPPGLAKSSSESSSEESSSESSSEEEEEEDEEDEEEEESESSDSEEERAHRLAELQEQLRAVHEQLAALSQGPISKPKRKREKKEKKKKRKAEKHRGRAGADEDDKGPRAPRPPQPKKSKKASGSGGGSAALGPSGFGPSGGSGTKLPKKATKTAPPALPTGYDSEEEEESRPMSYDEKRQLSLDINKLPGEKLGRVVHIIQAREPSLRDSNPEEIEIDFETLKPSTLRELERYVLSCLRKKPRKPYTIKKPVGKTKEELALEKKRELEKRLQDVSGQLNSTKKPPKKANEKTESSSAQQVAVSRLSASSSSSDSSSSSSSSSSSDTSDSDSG

Turning to `Cc1sc2c(c1C)C(c1ccc(Cl)cc1)=N[C@@H](CC(=O)OC(C)(C)C)c1nnc(C)n1-2`, the half-inhibitory concentration (IC50) – broadly, the concentration that gives 50% inhibition – in the data set on BT-549 [1] came to 5.06 µM; with MDA-MB-231 [4] it was 1.72 µM; with BT-549 [7] it was 1.05 µM; in the data set on MDA-MB-231 [9], 6.44 µM. The microsomal CLint (as a rule, the capacity of the preparation to metabolise the compound, expressed as a volume cleared per time) in the data set “in vitro [2]” was determined as 39.5 µL/min/mg. Besides, the half-life – broadly, how long it takes for the measured level to halve – in “in vitro [3]” stood at 35.4 min. Further, the IC50 at 72 h (in the data set “in vitro [5]”; in data set [8]) was greater than 20 µM in each case. In addition, in the data set on MDA-MB-231 [6], the inhibition in vivo at 50 mg/kg came out at 37.6%.

On to `COc1cc(OC)c2c(=O)[nH]c(-c3ccc(C(=O)N4CCCC(CNc5ncc6c(C)cc(=O)n(C7CCCC7)c6n5)C4)cc3)nc2c1` (stereo not drawn), for which the IC50 on CDK6/cyclin D3 turned out to be 0.297 µM.

For the compound `CC(=O)c1c(C)c2cnc(Nc3ccc(N4CCNCC4)cn3)nc2n(C2CCCC2)c1=O` [PALBOCICLIB], the IC50 is 15.3 µM in the data set with BT-549 [1] and 16.3 µM in the data set with MDA-MB-231 [9]. For the same compound, the IC50 at 72 h in “in vitro [5]” is greater than 20 µM. The inhibition in vivo at 50 mg/kg with MDA-MB-231 [6] was 22%.

Turning to `COc1cc(OC)c2c(=O)[nH]c(-c3ccc(C(=O)N4CC5(CCN(c6ncc7c(C)cc(=O)n(C8CCCC8)c7n6)CC5)C4)cc3)nc2c1`, the values for the IC50 (in data set [10]; in [11]; on CDK6/cyclin D3) were greater than 1 µM, greater than 1 µM and 0.036 µM, respectively. The inhibition (commonly the change of the read-out against control, counted positive when it falls) in data set [12] was 43.4%.
